Positions of bridges follow the written chain, without caps; N, C: chain ends. Non-standard residues stand in square brackets, D forms with d. No end group written: not given here. Abu = CC[C@H](N)C(=O)O; Dhb = C/C=C(\N)C(=O)O; Dha = C=C(N)C(=O)O

1 substance from paper PMC10877564, “Activity of Gut-Derived Nisin-like Lantibiotics against Human Gut Pathogens and Commensals” (ACS Chemical Biology, 2024) can be followed below.

Test [1] relates to E. ramosum MSK.23.96. As to the kind of experiment: MIC assay, anaerobic broth dilution. Type of test: cell-based, Erysipeloclostridium ramosum. The following applies: BHIS, 37 °C, 48 h, 3-fold serial dilution. The text has this: (§1) Antibiotic treatment may result in collateral damage to commensal bacteria in the human microbiome, leading to dysbiosis and susceptibility to various diseases.[44] How lantibiotics impact Gram-positive commensals from the human gut has remained unclear. Therefore, we performed antimicrobial activity tests of these lantibiotics against selected Gram-positive human gut commensals, most of which belong to the Lachnospiraceae family, one of the most abundant bacterial families in the human gut.[27] In general, human gut commensals were more susceptible to the set of investigated lantibiotics compared to pathogens (Figure 3).
(§2) Elution Buffer (4 M guanidine hydrochloride, 20 mM Tris HCl, pH 7.5 at 25 °C, 100 mM NaCl, 1 M imidazole). Peptides eluted from the Ni resin were concentrated and desalted using 3 kDa Amicon filters (Millipore). For leader peptide removal, the peptide (1:20 trypsin to peptide) was incubated with the trypsin protease in 50 mM Tris-HCl, pH 8 overnight at 37 °C. Lastly, the core peptides were further purified with HPLC using an Agilent 1200 instrument (Agilent) as specified in general methods. About 1.5 mg recombinant peptide was obtained after HPLC purification per […]
(§3) All MIC assays were performed under anaerobic condition. […] Lantibiotics were dissolved in DPBS, and concentrations were determined by BCA assay (Pierce) according to the manufacturer’s protocol. […]
(In broth dilution the organism is exposed to a series of concentrations in liquid medium.)

For test [2], the system named is E. faecium ATCC700221 (VRE). Put plainly: MIC assay, anaerobic broth dilution. As to conditions: BHIS, 37 °C, 48 h, 3-fold serial dilution. Type of test: cell-based, Enterococcus faecium. The text has this:
(§4) Next, we set out to test the antimicrobial activities of these purified lantibiotics against a panel of Gram-positive bacteria that are representatives of some of the most prevalent human pathogens: VRE, Methicillin-resistant S. aureus USA300 (MRSA), Methicillin-resistant Staphylococcus epidermidis SK135 (MRSE), Listeria monocytogenes 10403S, and Clostridioides difficile VPI10463. We examined the growth of bacteria in a 96-well plate under a concentration gradient of lantibiotics under anaerobic conditions (Figure S2B). […]
(§5) For broth cultures, isolates were grown in pre-reduced BHI supplemented with 5 g/L yeast extract (Difco, BD) and 0.1% L-cysteine under anaerobic condition.
(§6) Minimal Inhibition Concentration (MIC) assay
(§7) All MIC assays were performed under anaerobic condition. Stationary bacterial culture in BHIS (BHI supplemented with 5 g/L yeast extract and 0.1% L-cysteine) were inoculated 1:100 to wells containing 200 µL BHIS in U-bottom 96-well plates. Lantibiotics were dissolved in DPBS, and concentrations were determined by BCA assay (Pierce) according to the manufacturer’s protocol.
(§8) Lantibiotic stock solutions were added to wells to reach desired final concentration, with 3-fold serial dilution across rows to create concentration gradients. Bacteria-inoculated wells without lantibiotics served as control. […]

In test [3] the test system is L. monocytogenes 10403s. Put plainly: MIC assay, anaerobic broth dilution. As to conditions: BHIS, 37 °C, 48 h, 3-fold serial dilution. The test is classed as cell-based, Listeria monocytogenes.
Source text: as §4, §5, §6, §7, §8

Test [4] concerns C. comes MSK.11.23. Put plainly: MIC assay, anaerobic broth dilution. Type of test: cell-based, Coprococcus comes.
Source text: as §1, with “3). […]” for “3).”
(§9) Isolation of human gut commensal bacteria
Isolation and growth of commensal bacteria was done as previously reported.5 Briefly, fresh donor fecal samples were transferred into an anaerobic chamber (Coy Labs) within 1 h of collection. The anaerobic chamber was maintained using a gas mix consisting of 5% hydrogen, 5% carbon dioxide and 90% nitrogen, and hydrogen was maintained at ~3.0% using an anaerobic gas infuser. Fecal samples were resuspended in pre-reduced PBS and plated on Columbia blood agar or brain-heart infusion (BHI – Difco, BD) agar plates in three serial 10-fold dilutions and incubated at 37 °C for 48 – 96 h. Isolated colonies were re-streaked for purity onto Columbia blood agar and frozen in pre-reduced 10% glycerol in PBS.
as §5, §6, §7
Lantibiotic stock solutions were added to wells to reach desired final concentration, with 3-fold serial dilution across rows to create concentration gradients. Bacteria-inoculated wells without lantibiotics served as control. Plates were incubated at 37 °C for 48 h before being taken out of the anaerobic chamber for centrifugation. Plates were imaged with an iBright 1500 imager […]
pellets than those without lantibiotics were identified as MIC.

The subject of test [5] is selected Gram-positive human gut commensals. As to the kind of experiment: MIC assay against the panel of Gram-positive human gut commensals. Type of test: cell-based. The following applies: commensal panel, Figure 3F-M; anaerobic.
Source text: as §1, §2, §3

Test [6] relates to A. hadrus MSK.14.23. Put plainly: MIC assay, anaerobic broth dilution. Type of test: cell-based, Anaerostipes hadrus. The following applies: BHIS, 37 °C, 48 h, 3-fold serial dilution.
Source text: as §1, with “3). […]” for “3).”
as §9
(§10) Isolation and growth of commensal bacteria was done as previously reported.5 Briefly, fresh donor fecal samples were transferred into an anaerobic chamber (Coy Labs) within 1 h of collection. The anaerobic chamber was maintained using a gas mix consisting of 5% hydrogen, 5% carbon dioxide and 90% nitrogen, and hydrogen was maintained at ~3.0% using an anaerobic gas infuser. […]
as §3

Test [7] deals with S. epidermidis SK135 (MRSE). As to the kind of experiment: MIC assay, anaerobic broth dilution. The test is classed as cell-based, Staphylococcus epidermidis. The following applies: BHIS, 37 °C, 48 h, 3-fold serial dilution.
Source text: as §4, §5, §6, §7, §8

Test [8] deals with B. luti MSK.20.18. Put plainly: MIC assay, anaerobic broth dilution. The test is classed as cell-based, Blautia luti. The following applies: BHIS, 37 °C, 48 h, 3-fold serial dilution.
Source text: as §1, with “3). […]” for “3).”
as §9, §10, §3

“nisin A (I[Dhb]AI[Dha]LC[Abu]PGCK[Abu]GALMGCNMK[Abu]A[Abu]CHCSIHV[Dha]K; thioether 8-11, 13-19, 23-26, 25-28, 3-7; UniProt P13068 24-57, looked up) [prototypical class I lantibiotic produced by L. lactis, food preservative; commercial nisin A]”: the “nisin A MIC” value came out at 0.889 µM in test [1]; 1.48 µM in test [2]; 2.67 µM in test [3]; 0.296 µM in test [4] (C. comes MSK.11.23, anaerobic, BHIS, 37 °C, 48 h, 3-fold serial dilution); 0.0110 µM in test [6]; 2.67 µM in test [7]. For the same substance, the “nisin A MIC” value in test [8] turned out to be 0.0329 µM. Moreover, the “sensitivity of C. comes MSK.11.23 to the lantibiotic (in words)” value in test [4] (Figure 3, anaerobic MIC assay) was “relatively resistant”. Besides, in test [5], the “antimicrobial activity against human gut commensals (ranking in words)” value is on record as “generally more effective in growth inhibition”.
